The subject of this assay is soybeans (Glycine max). Nature of the assay: Example 1: soybean seed treatment with fluensulfone plus a single amino acid (pesticide phytotoxicity reduction). The class given is in vivo. The note with it: conclusion of Example 1; soybean seeds, 0.1% (w/v) amino acid. How it is done: To 10 g of seeds of soybeans (scientific name: Glycine max), fluensulfone (Nimitz, ADAMA, 40% (w/v) Fluensulfone-containing product) or fluensulfone with 1 ml of 0.1% (w/v) amino acid solution were treated as a pesticide. […] The treatment groups were as Table 1 below.
After mixing the solutions of each group well, they were sufficiently mixed for about 1 minute so that the solutions were evenly applied to soybean seeds. After than, they were taken out in a sample dish and air-drying was performed until the solutions were dried.
Soybean seeds were sown, and the germination rate was measured by counting the number of germinated seeds among all the seeds in 7 days after sowing, and this was shown in FIG. 1.
In 20 days after sowing, the length of the shoots (from the ground to the growth point) was measured with a ruler and this was shown in FIG. 2, and the photographs of the shoots and roots were shown in FIG. 3 and FIG. 4.

Consider `N[C@@H](Cc1c[nH]cn1)C(=O)O` [histidine], for which the phytotoxicity by fluensulfone result is “reduced”.

For the compound `CC(C)C[C@H](N)C(=O)O` [leucine], the phytotoxicity by fluensulfone entry is recorded as “reduced”.

Regarding `N[C@@H](CCC(=O)O)C(=O)O.[Na]` [sodium glutamic acid], the phytotoxicity by fluensulfone result is given as “reduced”.

(Values after patent US20250185651A1, “COMPOSITION FOR PESTICIDE PHYTOTOXICITY REDUCTION COMPRISING AMINO ACID” (CJ CheilJedang Corporation, priority 2021, published 2025).)
